These results are taken from the supplement of paper PMC11208160.
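Note: IS621 recombinase and bridge RNA in Escherichia coli cells.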

This series can be described thus: recombinant barcode read abundance after kanamycin selection (control-corrected) (log10(CPM+1)); higher = more efficient recombination; sequences stand for … in AGTGCAGAGAAAATCGGCCAGTTTTCTCTGCCTGCAGTCCGCATGCCGT…AGATTTATGCAGCGGACTGCCTTTCTCCCAAAGTGATAAACCGGACAGTATCATGGACCGGTTTTCCCGGTAATCCGTATTTGCAAGGTTGGTTTCACT; site = the 11-nt target. In outline: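 The screen was pooled in E. coli and paired targets with IS621 bridge RNA target-binding loops. Recombination efficiency is taken from barcode counts per million at recombinant junctions, averaged and adjusted against the control. Values, in the form log10(CPM+1), come from duplicate plating on chloramphenicol/ampicillin LB agar or on chloramphenicol/ampicillin/kanamycin with 0.1 mM IPTG.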
“CACGCAACTTGGGTTCTAACCTGTTGCTT (site CACGCAACTAA)”: the “recombinant barcode read abundance (log10)” value came out at 0.476.
Take “CACGCAACTTGGGTTCTAACCTGTTGCTT (site GAGGCAACTAA)”: the “recombinant barcode read abundance (log10)” value was 0.888.
For “CACTATCCTTGGGTTCTAACCTGTTGCCT (site CAATATCCTAG)” the value was 0.0585.
In the case of “CACTATCCTTGGGTTCTAACCTGTTGCCT (site CACTATCCTAG)”, the “recombinant barcode read abundance (log10)” value was determined as 2.16.
On to “CACTATCCTTGGGTTCTAACCTGTTGCCT (site CAGTATCCTAG)”, for which the “recombinant barcode read abundance (log10)” value was 0.157.
For “CACTATCCTTGGGTTCTAACCTGTTGCCT (site CATTATCCTAG)” the value was 0.0363.
For “CACTCTGCTTGGGTTCTAACCTGTTGCCT (site CAATCTGCTAG)” the value was 0.617; for “CACTCTGCTTGGGTTCTAACCTGTTGCCT (site CACTCTGCTAG)”, 0.569; for “CACTCTGCTTGGGTTCTAACCTGTTGCCT (site CAGTCTGCTAG)”, 0.0477.
Turning to “CACTCTGCTTGGGTTCTAACCTGTTGCCT (site CATTCTGCTAG)”, the “recombinant barcode read abundance (log10)” value stood at 0.332.
With “CACTGGGCTTGGGTTCTAACCTGTTGCAG (site CACTGGGCTCT)”, the “recombinant barcode read abundance (log10)” value stood at 0.791.
With “CACTGGGCTTGGGTTCTAACCTGTTGCAG (site CACTTGGCTCT)” the figure was 0.115; with “CACTGTTCTTGGGTTCTAACCTGTTGCCT (site CACTGATCTAG)”, 0.325.
For “CACTGTTCTTGGGTTCTAACCTGTTGCCT (site CACTGCTCTAG)”, the “recombinant barcode read abundance (log10)” value came to 0.0508.
For the sequence “CACTGTTCTTGGGTTCTAACCTGTTGCCT (site CACTGGTCTAG)”, the “recombinant barcode read abundance (log10)” value came to 0.069.
Take “CACTGTTCTTGGGTTCTAACCTGTTGCCT (site CACTGTTCTAG)”: the “recombinant barcode read abundance (log10)” value is 0.737.
“CACTTCCCTTGGGTTCTAACCTGTTGCAT (site CACTTCCCTAA)”: the “recombinant barcode read abundance (log10)” value is 0.0158.
Regarding “CACTTCCCTTGGGTTCTAACCTGTTGCAT (site CACTTCCCTAC)”, the “recombinant barcode read abundance (log10)” value was 0.106.
For “CACTTCCCTTGGGTTCTAACCTGTTGCAT (site CACTTCCCTAG)” the value was 0.316; for “CACTTCCCTTGGGTTCTAACCTGTTGCAT (site CACTTCCCTAT)”, 1.93.
For “CACTTCCCTTGGGTTCTAACCTGTTGCGA (site AGTGAAGCTGT)” the value was 0.222; for “CACTTCCCTTGGGTTCTAACCTGTTGCGA (site CACTTCCCTTC)”, 0.492.
For “CACTTCCCTTGGGTTCTAACCTGTTGCGT (site CACTTCCCTAA)” the value was 0.0684.
Regarding “CACTTCCCTTGGGTTCTAACCTGTTGCGT (site CACTTCCCTAC)”, the “recombinant barcode read abundance (log10)” value was determined as 2.4.
With “CACTTCCCTTGGGTTCTAACCTGTTGCGT (site CACTTCCCTAG)” the figure was 0.402.
Consider “CACTTCCCTTGGGTTCTAACCTGTTGCGT (site CACTTCCCTAT)”, for which the “recombinant barcode read abundance (log10)” value is 1.5.
With “CACTTGGCTTGGGTTCTAACCTGTTGCCT (site CACTTGACTAG)” the figure was 0.0371.
For “CACTTGGCTTGGGTTCTAACCTGTTGCCT (site CACTTGCCTAG)” the value was 0.366; for “CACTTGGCTTGGGTTCTAACCTGTTGCCT (site CACTTGGCTAG)”, 0.134.
With “CACTTGGCTTGGGTTCTAACCTGTTGCCT (site CACTTGTCTAG)” the figure was 0.0944; with “CAGAACACTTGGGTTCTAACCTGTTGCCT (site AAGAACACTAG)”, 0.0991.
For the sequence “CAGAACACTTGGGTTCTAACCTGTTGCCT (site CAGAACACTAG)”, the “recombinant barcode read abundance (log10)” value is 1.94.
With “CAGAACACTTGGGTTCTAACCTGTTGCCT (site GAGAACACTAG)” the figure was 0.198; with “CAGAACACTTGGGTTCTAACCTGTTGCCT (site TAGAACACTAG)”, 0.171; with “CAGCCCTCTTGGGTTCTAACCTGTTGCCT (site CAGCCCTCTAG)”, 2.59.
Consider “CAGCCCTCTTGGGTTCTAACCTGTTGCCT (site CCGCCCTCTAG)”, for which the “recombinant barcode read abundance (log10)” value worked out at 0.883.
With “CAGCCCTCTTGGGTTCTAACCTGTTGCCT (site CGGCCCTCTAG)” the figure was 0.0354; with “CAGCCCTCTTGGGTTCTAACCTGTTGCCT (site CTGCCCTCTAG)”, 0.315.
With “CAGCTACCTTGGGTTCTAACCTGTTGCCT (site CAGCTACCTAG)” the figure was 1.73; with “CAGCTACCTTGGGTTCTAACCTGTTGCCT (site CCGCTACCTAG)”, 0.334.
In the case of “CAGCTACCTTGGGTTCTAACCTGTTGCCT (site CGGCTACCTAG)”, the “recombinant barcode read abundance (log10)” value was determined as 0.226.
For “CAGCTACCTTGGGTTCTAACCTGTTGCCT (site CTGCTACCTAG)”, the “recombinant barcode read abundance (log10)” value was determined as 0.585.
Consider “CAGGACTCTTGGGTTCTAACCTGTTGCTT (site CAGCACTCTTA)”, for which the “recombinant barcode read abundance (log10)” value was found to be 0.0832.
“CAGGACTCTTGGGTTCTAACCTGTTGCTT (site CAGGACTCTAA)”: the “recombinant barcode read abundance (log10)” value is 2.85.
As for “CAGGCGGCTTGGGTTCTAACCTGTTGCCT (site CAGGCGACTAG)”, the “recombinant barcode read abundance (log10)” value came out at 0.117.
For “CAGGCGGCTTGGGTTCTAACCTGTTGCCT (site CAGGCGCCTAG)” the value was 0.254; for “CAGGCGGCTTGGGTTCTAACCTGTTGCCT (site CAGGCGGCTAG)”, 0.829.
On to “CAGGCGGCTTGGGTTCTAACCTGTTGCCT (site CAGGCGTCTAG)”, for which the “recombinant barcode read abundance (log10)” value was 0.0685.
For “CAGGGTCCTTGGGTTCTAACCTGTTGCGG (site CAGGGTCCTCC)” the value was 3.55; for “CAGGGTCCTTGGGTTCTAACCTGTTGCGG (site TAGGGTTCTCC)”, 0.0367; for “CAGTCAGCTTGGGTTCTAACCTGTTGCCT (site CAGTCAGCTAG)”, 1.16.
“CAGTCAGCTTGGGTTCTAACCTGTTGCCT (site GTAAGGACTCC)”: the “recombinant barcode read abundance (log10)” value turned out to be 0.0866.
With “CAGTCCTCTTGGGTTCTAACCTGTTGCTG (site CAGTCCTCTCA)” the figure was 2.23; with “CAGTCCTCTTGGGTTCTAACCTGTTGCTG (site CCGTCCTCTCA)”, 0.0321; with “CAGTGAACTTGGGTTCTAACCTGTTGCCT (site CAGTGAACTAG)”, 1.55.
As to “CAGTGAACTTGGGTTCTAACCTGTTGCCT (site CCGTGAACTAG)”, the “recombinant barcode read abundance (log10)” value is 0.181.
With “CAGTGAACTTGGGTTCTAACCTGTTGCCT (site CGGTGAACTAG)” the figure was 0.0595; with “CAGTGAACTTGGGTTCTAACCTGTTGCCT (site CTGTGAACTAG)”, 0.0273; with “CAGTGGACTTGGGTTCTAACCTGTTGCCT (site CAATGGACTAG)”, 0.961.
Regarding “CAGTGGACTTGGGTTCTAACCTGTTGCCT (site CACTGGACTAG)”, the “recombinant barcode read abundance (log10)” value was 0.101.
“CAGTGGACTTGGGTTCTAACCTGTTGCCT (site CAGTGGACTAG)”: the “recombinant barcode read abundance (log10)” value is 2.04.
With “CAGTGGACTTGGGTTCTAACCTGTTGCCT (site CATTGGACTAG)” the figure was 0.0477; with “CAGTTGTCTTGGGTTCTAACCTGTTGCCT (site AAGTTGTCTAC)”, 0.0187; with “CAGTTGTCTTGGGTTCTAACCTGTTGCCT (site CAGTTGTCTAG)”, 1.75.
As for “CATAATTCTTGGGTTCTAACCTGTTGCCT (site CATAATTCTAG)”, the “recombinant barcode read abundance (log10)” value is 0.445.
For the sequence “CATAATTCTTGGGTTCTAACCTGTTGCCT (site CATCATTCTAG)”, the “recombinant barcode read abundance (log10)” value stood at 0.
For the sequence “CATAATTCTTGGGTTCTAACCTGTTGCCT (site CATGATTCTAG)”, the “recombinant barcode read abundance (log10)” value is 0.0188.
Regarding “CATAATTCTTGGGTTCTAACCTGTTGCCT (site CATTATTCTAG)”, the “recombinant barcode read abundance (log10)” value is 0.0376.
For “CATAGCGCTTGGGTTCTAACCTGTTGCCT (site AGCTTGCCTCT)” the value was 0.0679.
Regarding “CATAGCGCTTGGGTTCTAACCTGTTGCCT (site CATAGCGCTAG)”, the “recombinant barcode read abundance (log10)” value was 0.605.
With “CATAGCTCTTGGGTTCTAACCTGTTGCCT (site AATAGCTCTAG)” the figure was 0.527; with “CATAGCTCTTGGGTTCTAACCTGTTGCCT (site CATAGCTCTAG)”, 1.24.
With “CATAGCTCTTGGGTTCTAACCTGTTGCCT (site GATAGCTCTAG)”, the “recombinant barcode read abundance (log10)” value is 0.176.
With “CATAGCTCTTGGGTTCTAACCTGTTGCCT (site TATAGCTCTAG)” the figure was 0.337.
As for “CATAGGCCTTGGGTTCTAACCTGTTGCAT (site CATAGACCTAT)”, the “recombinant barcode read abundance (log10)” value was determined as 0.23.
Turning to “CATAGGCCTTGGGTTCTAACCTGTTGCAT (site CATAGCCCTAT)”, the “recombinant barcode read abundance (log10)” value stood at 0.371.
Take “CATAGGCCTTGGGTTCTAACCTGTTGCAT (site CATAGGCCTAT)”: the “recombinant barcode read abundance (log10)” value came to 0.811.
